According to patent publication US9751888B2, “Heterocyclic compounds and uses thereof” (Infinity Pharmaceuticals, Inc., priority 2013, dated 2017):

Assays:
p110 δ (RAJI cells) = p110 δ (RAJI cells) (Homo sapiens (Human), UniProt O00329); assay: PI3K-δ selective cellular assay: phospho-AKT in anti-human IgM stimulated RAJI cells; assay type: cell-based; settings: serum-starved RAJI cells stimulated with anti-human IgM
Text: A compound's ability in selectively inhibiting PI3K-δ can be assessed using RAJI cells, i.e., B lymphocyte cells derived from lymphoma patients. Briefly, serum-starved RAJI cells are stimulated with anti-human IgM, thereby causing signaling through the B-cell receptors, as described in, for example, He et al., Leukemia Research (2009) 33: 798-802. B-cell receptor signaling is important for the activation, differentiation, and survival of B cells and certain B-cell derived cancers. Reduction of phospho-AKT is indicative of compounds that may inhibit B-cell proliferation and function in certain diseases. […] Certain compounds provided herein were tested in RAJI cell model using procedures as described above.

[1] = target: human Class I PI3 kinase α (Homo sapiens (Human), UniProt P42336); assay: PI3-Kinase Promega ADP-Glo Max assay, α isoform; assay type: biochemical; settings: 20 nM kinase, 3 mM ATP, 500 uM diC8-PtdInsP; read-out: Promega α PI3K IC50
[2] = target: human Class I PI3 kinase β (Homo sapiens (Human), UniProt P42338); assay: PI3-Kinase Promega ADP-Glo Max assay, β isoform; assay type: biochemical; settings: 40 nM kinase, 3 mM ATP, 500 uM diC8-PtdInsP; read-out: Promega β PI3K IC50
Chain of human Class I PI3 kinase β (P42338 whole entry, looked up, canonical isoform): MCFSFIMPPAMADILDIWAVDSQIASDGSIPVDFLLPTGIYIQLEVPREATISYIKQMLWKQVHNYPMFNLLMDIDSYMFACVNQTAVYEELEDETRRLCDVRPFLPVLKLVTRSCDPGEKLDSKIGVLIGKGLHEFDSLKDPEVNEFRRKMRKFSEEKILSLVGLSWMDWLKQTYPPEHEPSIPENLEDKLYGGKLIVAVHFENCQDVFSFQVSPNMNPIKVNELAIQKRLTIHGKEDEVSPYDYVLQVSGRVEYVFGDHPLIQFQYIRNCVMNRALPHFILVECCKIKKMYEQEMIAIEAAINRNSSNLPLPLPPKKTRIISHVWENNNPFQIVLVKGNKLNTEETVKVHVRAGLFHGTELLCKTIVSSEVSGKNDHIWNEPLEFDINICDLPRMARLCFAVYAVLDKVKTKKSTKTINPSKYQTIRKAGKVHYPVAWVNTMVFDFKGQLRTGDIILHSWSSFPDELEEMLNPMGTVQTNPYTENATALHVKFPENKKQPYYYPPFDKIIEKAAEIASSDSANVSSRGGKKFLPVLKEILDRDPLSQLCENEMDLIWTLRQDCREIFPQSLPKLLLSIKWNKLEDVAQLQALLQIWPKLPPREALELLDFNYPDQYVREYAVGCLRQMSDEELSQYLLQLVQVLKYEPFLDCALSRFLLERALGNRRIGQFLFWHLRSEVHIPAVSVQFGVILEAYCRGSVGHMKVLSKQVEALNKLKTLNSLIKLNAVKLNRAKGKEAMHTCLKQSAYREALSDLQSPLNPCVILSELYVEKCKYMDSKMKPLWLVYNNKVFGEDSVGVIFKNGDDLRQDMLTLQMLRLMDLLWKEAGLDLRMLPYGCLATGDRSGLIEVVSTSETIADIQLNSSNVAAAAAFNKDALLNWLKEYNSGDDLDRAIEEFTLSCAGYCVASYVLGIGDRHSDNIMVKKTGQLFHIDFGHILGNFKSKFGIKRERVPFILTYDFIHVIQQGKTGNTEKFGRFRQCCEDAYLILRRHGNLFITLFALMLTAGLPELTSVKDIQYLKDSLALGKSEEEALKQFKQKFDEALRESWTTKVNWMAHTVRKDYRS
Chain of human Class I PI3 kinase β (P27986 whole entry partner, looked up, canonical isoform): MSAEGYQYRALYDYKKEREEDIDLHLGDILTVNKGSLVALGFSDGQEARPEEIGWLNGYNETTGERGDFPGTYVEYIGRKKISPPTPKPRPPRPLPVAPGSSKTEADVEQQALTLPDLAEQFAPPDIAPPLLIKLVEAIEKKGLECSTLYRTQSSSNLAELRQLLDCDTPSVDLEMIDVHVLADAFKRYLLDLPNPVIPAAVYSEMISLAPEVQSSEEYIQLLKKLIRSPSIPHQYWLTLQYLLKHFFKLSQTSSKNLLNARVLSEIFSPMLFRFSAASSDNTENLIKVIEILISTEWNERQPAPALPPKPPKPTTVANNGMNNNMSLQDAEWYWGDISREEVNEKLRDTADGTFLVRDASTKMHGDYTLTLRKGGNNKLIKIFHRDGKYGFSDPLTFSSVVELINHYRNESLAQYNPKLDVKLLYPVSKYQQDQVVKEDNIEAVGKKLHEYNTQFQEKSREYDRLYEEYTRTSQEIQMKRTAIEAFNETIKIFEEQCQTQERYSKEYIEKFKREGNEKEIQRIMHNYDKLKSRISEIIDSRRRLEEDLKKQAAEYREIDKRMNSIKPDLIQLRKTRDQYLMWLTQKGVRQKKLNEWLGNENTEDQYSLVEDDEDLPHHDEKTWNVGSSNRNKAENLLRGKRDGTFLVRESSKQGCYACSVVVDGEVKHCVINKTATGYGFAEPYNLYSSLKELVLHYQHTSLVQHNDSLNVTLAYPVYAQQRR

[3] = target: human Class I PI3 kinase γ (Homo sapiens (Human), UniProt P48736); assay: PI3-Kinase Promega ADP-Glo Max assay, γ isoform; assay type: biochemical; settings: 40 nM kinase, 3 mM ATP, 500 uM diC8-PtdInsP; read-out: Promega γ PI3K IC50
Chain of human Class I PI3 kinase γ (P48736 whole entry, canonical isoform): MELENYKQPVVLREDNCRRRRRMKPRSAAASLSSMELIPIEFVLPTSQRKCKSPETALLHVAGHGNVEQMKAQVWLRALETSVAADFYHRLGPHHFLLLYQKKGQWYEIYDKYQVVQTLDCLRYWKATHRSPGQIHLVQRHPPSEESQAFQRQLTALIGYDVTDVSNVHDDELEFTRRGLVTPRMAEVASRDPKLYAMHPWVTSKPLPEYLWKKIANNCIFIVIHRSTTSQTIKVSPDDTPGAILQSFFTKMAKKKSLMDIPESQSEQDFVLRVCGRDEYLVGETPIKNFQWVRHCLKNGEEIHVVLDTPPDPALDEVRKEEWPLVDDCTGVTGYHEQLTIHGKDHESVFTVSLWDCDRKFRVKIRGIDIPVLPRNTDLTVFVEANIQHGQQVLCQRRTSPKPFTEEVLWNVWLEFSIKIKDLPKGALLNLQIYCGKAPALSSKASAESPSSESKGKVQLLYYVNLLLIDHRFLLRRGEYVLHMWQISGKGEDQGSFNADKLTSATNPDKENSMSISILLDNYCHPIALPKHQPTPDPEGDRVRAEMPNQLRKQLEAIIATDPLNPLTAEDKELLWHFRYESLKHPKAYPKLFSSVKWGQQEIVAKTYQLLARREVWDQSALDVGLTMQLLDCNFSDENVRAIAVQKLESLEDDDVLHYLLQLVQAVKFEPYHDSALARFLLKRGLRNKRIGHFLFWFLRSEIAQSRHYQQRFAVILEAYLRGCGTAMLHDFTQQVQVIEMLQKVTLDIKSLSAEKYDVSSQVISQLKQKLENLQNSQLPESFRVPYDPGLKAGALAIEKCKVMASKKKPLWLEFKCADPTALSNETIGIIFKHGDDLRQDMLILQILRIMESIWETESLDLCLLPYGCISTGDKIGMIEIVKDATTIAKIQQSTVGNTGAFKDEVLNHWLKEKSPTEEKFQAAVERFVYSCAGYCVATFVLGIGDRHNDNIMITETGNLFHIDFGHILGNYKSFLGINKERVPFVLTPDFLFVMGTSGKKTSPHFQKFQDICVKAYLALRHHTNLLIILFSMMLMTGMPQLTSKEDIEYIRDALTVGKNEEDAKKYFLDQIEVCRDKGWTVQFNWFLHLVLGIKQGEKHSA
Description: Promega ADP-Glo Max assay kit (Cat. No. V7002) was utilized to determine IC50 values for α, β, δ and γ isoforms of human Class I PI3 kinases (Millipore). Samples of kinase (20 nM α or δ, 40 nM β or γ isoform) were incubated with compound for 15 minutes at room temperature in reaction buffer (15 mM HEPES pH 7.4, 20 mM NaCl, 1 mM EGTA, 0.02% Tween 20, 10 mM MgCl2, 0.2 mg/mL bovine-γ-globulins) followed by addition of ATP/diC8-PtdInsP mixture to give final concentrations of 3 mM ATP and 500 uM diC8-PtdInsP. Reactions were incubated at room temperature for 2 hours followed by addition of 25 uL of stop solution. After a 40-minute incubation at room temperature, 50 uL of Promega detection mix was added followed by incubation for 1 hour at room temperature. Plates were then read on Envision plate reader in luminescence mode. Data was converted to % inhibition using the following equation below:
[formula] where S is the sample luminescence, Pos is a positive control without added PI3K, Neg is the negative control without added compound. Data was then plotted as % inhibition vs compound concentration.
Certain compounds provided herein were tested in PI3-Kinase Promega Assay using procedures as described above to determine IC50 values for α, β, δ and/or γ isoforms.

[4] = target: human Class I PI3 kinase δ (Homo sapiens (Human), UniProt O00329); assay: PI3-Kinase Promega ADP-Glo Max assay, δ isoform; assay type: biochemical; settings: 20 nM kinase, 3 mM ATP, 500 uM diC8-PtdInsP; read-out: Promega δ PI3K IC50
Chain of human Class I PI3 kinase δ (O00329 whole entry, canonical isoform): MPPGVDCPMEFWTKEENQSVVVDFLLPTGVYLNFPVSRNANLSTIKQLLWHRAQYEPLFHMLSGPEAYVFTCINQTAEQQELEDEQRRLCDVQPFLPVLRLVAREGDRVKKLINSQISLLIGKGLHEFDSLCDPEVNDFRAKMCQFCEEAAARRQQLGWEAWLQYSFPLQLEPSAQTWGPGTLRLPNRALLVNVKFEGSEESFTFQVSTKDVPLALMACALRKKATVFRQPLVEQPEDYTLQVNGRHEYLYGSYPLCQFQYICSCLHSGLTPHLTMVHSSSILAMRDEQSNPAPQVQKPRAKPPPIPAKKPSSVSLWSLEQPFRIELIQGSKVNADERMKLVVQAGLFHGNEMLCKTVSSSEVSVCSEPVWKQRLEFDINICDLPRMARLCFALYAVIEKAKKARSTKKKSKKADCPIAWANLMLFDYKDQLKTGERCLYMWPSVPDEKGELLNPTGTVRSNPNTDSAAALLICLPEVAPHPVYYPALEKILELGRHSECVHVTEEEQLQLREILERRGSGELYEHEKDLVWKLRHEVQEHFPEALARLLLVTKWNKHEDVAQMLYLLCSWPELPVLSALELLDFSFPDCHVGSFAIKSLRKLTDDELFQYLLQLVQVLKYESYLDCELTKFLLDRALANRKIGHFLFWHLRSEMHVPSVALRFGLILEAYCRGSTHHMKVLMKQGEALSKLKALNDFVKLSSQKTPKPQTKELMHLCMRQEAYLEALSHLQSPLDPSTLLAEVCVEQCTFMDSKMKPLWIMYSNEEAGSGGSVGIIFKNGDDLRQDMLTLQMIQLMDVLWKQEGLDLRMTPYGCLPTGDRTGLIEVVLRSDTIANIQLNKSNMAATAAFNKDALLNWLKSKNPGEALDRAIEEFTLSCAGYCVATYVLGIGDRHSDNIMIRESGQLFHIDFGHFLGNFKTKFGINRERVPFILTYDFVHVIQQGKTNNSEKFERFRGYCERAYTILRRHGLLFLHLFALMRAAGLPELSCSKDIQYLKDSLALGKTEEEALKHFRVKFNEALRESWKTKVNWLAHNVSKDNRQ
Chain of human Class I PI3 kinase δ (P27986 whole entry partner, canonical isoform): as the sequence (P27986 whole entry partner, looked up, canonical isoform) above

p110 γ (RAW264.7 cells) = p110 γ (RAW264.7 cells) (Mus musculus (Mouse), UniProt Q9JHG7); assay: PI3K-γ selective cellular assay: phospho-AKT in C5a stimulated RAW264.7 macrophages; assay type: cell-based; settings: serum-starved RAW264.7 cells stimulated with C5a
Description: Certain compounds provided herein were tested in RAW 264.7 cell model using procedures as described above.

Chain of p110 δ (RAJI cells) (O00329 whole entry): as the sequence (O00329 whole entry, canonical isoform) above
Chain of p110 δ (RAJI cells) (P27986 whole entry partner): as the sequence (P27986 whole entry partner, looked up, canonical isoform) above

SMILES | IC50 (p110 δ (RAJI cells)) [nM] | IC50 [1] [µM] | IC50 [2] [nM] | IC50 [3] [nM] | IC50 [4] [nM] | IC50 (p110 γ (RAW264.7 cells)) [nM]
C[C@H](NC(=O)c1c(N)nn2cccnc12)c1cc2cccc(OCc3cnn(C)c3)c2c(=O)n1-c1ccccc1 [Compound 67] | 1000 to 10000 | 1 to 10 | 1000 to 10000 | 500 to 1000 | 1000 to 10000 | 10 to 100
C[C@H](NC(=O)c1c(N)nn2cccnc12)c1cc2cccc(Cl)c2c(=O)n1-c1cccc(O)c1 [Compound 69] | 1 to 10 | 1 to 10 | 10 to 100 | 10 to 100 | 100 to 500 | 10 to 100
C[C@H](NC(=O)c1c(N)nn2cccnc12)c1cc2cccc(Cl)c2c(=O)n1C1CCC1 [Compound 71] | 10 to 100 | 1 to 10 | 500 to 1000 | 1000 to 10000 | 1000 to 10000 | 10 to 100
Cc1cccc(-n2c([C@H](C)NC(=O)c3c(N)nn4cccnc34)cc3cccc(Cl)c3c2=O)c1 [Compound 74] | 10 to 100 | 1 to 10 | 1000 to 10000 | 100 to 500 | 500 to 1000 | 10 to 100
C[C@H](NC(=O)c1c(N)nn2cccnc12)c1cc2cccc(Cl)c2c(=O)n1-c1cccnc1 [Compound 76] | 100 to 500 | 1 to 10 | 500 to 1000 | 100 to 500 | 1000 to 10000 | 10 to 100
C[C@H](NC(=O)c1c(N)nn2cccnc12)c1cc2cccc(Cl)c2c(=O)n1-c1cccc(S(C)(=O)=O)c1 [Compound 77] | 100 to 500 | 1 to 10 | 500 to 1000 | 500 to 1000 | 1000 to 10000 | 100 to 500
C[C@H](NC(=O)c1c(N)nn2cccnc12)c1cc2cccc(Cl)c2c(=O)n1-c1cccc(NS(C)(=O)=O)c1 [Compound 79] | 10 to 100 | 1 to 10 | 100 to 500 | 100 to 500 | 500 to 1000 | 100 to 500

Second part, the molecule after the results:

IC50 (p110 δ (RAJI cells)) [nM] | IC50 [1] [µM] | IC50 [2] [nM] | IC50 [3] [nM] | IC50 [4] [nM] | IC50 (p110 γ (RAW264.7 cells)) [nM] | SMILES
1 to 10 | 1 to 10 | 100 to 500 | 10 to 100 | 500 to 1000 | 1 to 10 | C[C@H](NC(=O)c1c(N)nn2cccnc12)c1cc2cccc(Cl)c2c(=O)n1-c1ccccc1O [Compound 68]
1 to 10 | 1 to 10 | 1 to 10 | 10 to 100 | 100 to 500 | 10 to 100 | C[C@H](NC(=O)c1c(N)nn2cccnc12)c1cc2cccc(Cl)c2c(=O)n1-c1ccc(O)cc1 [Compound 70]
10 to 100 | 1 to 10 | 100 to 500 | 1000 to 10000 | 1000 to 10000 | 100 to 500 | C[C@H](NC(=O)c1c(N)nn2cccnc12)c1cc2cccc(Cl)c2c(=O)n1C1CC(NS(C)(=O)=O)C1 (stereo partly drawn) [Compound 72]
10 to 100 | 1 to 10 | 100 to 500 | 100 to 500 | 500 to 1000 | 1 to 10 | Cc1ccccc1-n1c([C@H](C)NC(=O)c2c(N)nn3cccnc23)cc2cccc(Cl)c2c1=O [Compound 73]
10 to 100 | 1 to 10 | 1000 to 10000 | 100 to 500 | 1000 to 10000 | 10 to 100 | Cc1ccc(-n2c([C@H](C)NC(=O)c3c(N)nn4cccnc34)cc3cccc(Cl)c3c2=O)cc1 [Compound 75]
100 to 500 | 1 to 10 | 1000 to 10000 | 100 to 500 | 1000 to 10000 | 10 to 100 | C[C@H](NC(=O)c1c(N)nn2cccnc12)c1cc2cccc(Cl)c2c(=O)n1-c1ccccc1NS(C)(=O)=O [Compound 78]
500 to 1000 | 1 to 10 | 1000 to 10000 | 1000 to 10000 | 1000 to 10000 | 1000 to 10000 | C[C@H](NC(=O)c1c(N)nn2cccnc12)c1cc2cccc(Cl)c2c(=O)n1-c1ccc(S(C)(=O)=O)cc1 [Compound 80]
